Measurements from US20100035257A1 (GENERAL HOSPITAL, published 2010).

Experiments:
[1] = tested on: PUMA and NOXA; test: QRT-PCR of pro-apoptotic effector genes after drug treatment; format: cell-based, human
Description: ORT-PCR analysis. Total RNA from cells was extracted using STAT-60 RNA isolation solution (Tel-Test Inc., Friendswood, USA) according to manufacturer's protocol. First-strand cDNA was synthesized from total RNA using random hexamer primers and the SuperScript II system for RT-PCR (Invitrogen). Gene expression levels were measured by real-time QRT-PCR using the iQ SYBR Green Supermix reagent (Bio-Rad) and an OPTICON™ real-time PCR detector system (MJ Research). Data analysis was performed using OPTICON MONITOR™ Analysis Software V1.08 (MJ Research). The expression of each gene was normalized to GAPDH or B2M as a reference. The relative copy numbers were calculated from an 8-point standard curve generated from a ten fold serial dilution of full length cDNA constructs as described previously (15).
Specific forward and reverse primers (respectively) for ΔNp63 were: 5′-[…]-3′ and 5′-[…]-3′; for TAp63 were 5′-[…]-3′ and 5′-[…]-3′; for TAp73 were 5′-[…]-3′ and […]-3′; for ΔNp73 were 5′-[…]-3′ and 5′-[…]-3′; for GAPDH were: 5′-[…]-3′ and 5′-[…]-3′ and for detection of B2M were 5′-[…]-3′ and 5′-[…]-3′. The conditions for all QRT-PCR reactions were: 3 min at 94° C., followed by 40 sec at 94° C., 40 sec at 60° C. and 25 sec at 72° C. for 40 cycles. All PCR products were confirmed by the presence of a single-peak upon melting-curve analysis and by gel electrophoresis. No-template (water) reaction mixtures and “no reverse transcriptase” mixtures were performed on all samples as negative controls. All experiments were performed in duplicate.

[2] = tested on: MDA-MB-468 cells; test: Chemosensitivity assay (MTT cell viability); format: cell-based, human
Description: (§1) Chemosensitivity assay. Dose-response curves and IC50 values were determined using the methyl thiazolyl tetrazolium (MTT) cell viability assay as described previously (52). Cells were seeded into 96-well microtiter plates for 24 hours at a density of 5×10^3 per well. Serial drug dilutions were prepared in medium immediately before each assay and viable cell masses following 3 days or 5 days of drug exposure were determined by cell-mediated MTT reduction. Cell growth as well as drug activity were determined by measuring absorbance at 550 nm using an Anthos Labtec systems plate reader.

[3] = tested on: HCC-1937 cells; test: Chemosensitivity assay (MTT cell viability); format: cell-based, human
Description: as §1

[4] = tested on: MCF-10A cells; test: Chemosensitivity assay (MTT cell viability); format: cell-based, human; conditions: for effect of ectopic TAp73β expression on sensitivity: retroviral TAp73β vs control vector
Description: as §1

[5] = tested on: TAp73; test: IP/immunoblot for p73 tyrosine phosphorylation
[6] = tested on: ΔNp63α/TAp73 complex; test: Co-immunoprecipitation of the ΔNp63α/TAp73 complex
[7] = tested on: human breast cancer-derived cell lines; test: p73/p63 biomarker and in vitro cisplatin sensitivity; format: cell-based; conditions: Biomarker Positive cell lines
Description: as §1
Correlation of DNp63/TAp73 biomarker expression and cisplatin sensitivity in vitro. The inventors next established the threshold for DNp63/TAp73 biomarker expression that reflected the biochemcially-defined cisplatin sensitivity pathway. The inventors defined biomarker positivity as a DNp63/TAp73 ratio >2, a value that corresponds to the molar ratio of DNp63 required to inactivate essentially all (>99%) pro-apoptotic TAp73 through DNp63/TAp73 hetero-tetramer formation. The inventors assessed the ability of this defined biomarker threshold to predict cisplatin sensitivity in a limited number of human breast cancer-derived cell lines. As shown below in Table 2, the positively for the biomarker correlated with cisplatin sensitivity in these cells. […]

[8] = tested on: MCF-7 cells; test: Chemosensitivity assay (MTT cell viability); format: cell-based, human; conditions: TAp73 knockdown
Description: as §1

[9] = biological target: T1, Y99F TAp73α (human, UniProt O15350 1-636); test: IP for p63 or p73 with immunoblot, MCF-10A cells with retroviral Y99F TAp73α, after cisplatin
T1 construct: Expressed via retrovirus in MCF-10A cells; also called site-specific Y99F mutant TAp73α
T1 sequence: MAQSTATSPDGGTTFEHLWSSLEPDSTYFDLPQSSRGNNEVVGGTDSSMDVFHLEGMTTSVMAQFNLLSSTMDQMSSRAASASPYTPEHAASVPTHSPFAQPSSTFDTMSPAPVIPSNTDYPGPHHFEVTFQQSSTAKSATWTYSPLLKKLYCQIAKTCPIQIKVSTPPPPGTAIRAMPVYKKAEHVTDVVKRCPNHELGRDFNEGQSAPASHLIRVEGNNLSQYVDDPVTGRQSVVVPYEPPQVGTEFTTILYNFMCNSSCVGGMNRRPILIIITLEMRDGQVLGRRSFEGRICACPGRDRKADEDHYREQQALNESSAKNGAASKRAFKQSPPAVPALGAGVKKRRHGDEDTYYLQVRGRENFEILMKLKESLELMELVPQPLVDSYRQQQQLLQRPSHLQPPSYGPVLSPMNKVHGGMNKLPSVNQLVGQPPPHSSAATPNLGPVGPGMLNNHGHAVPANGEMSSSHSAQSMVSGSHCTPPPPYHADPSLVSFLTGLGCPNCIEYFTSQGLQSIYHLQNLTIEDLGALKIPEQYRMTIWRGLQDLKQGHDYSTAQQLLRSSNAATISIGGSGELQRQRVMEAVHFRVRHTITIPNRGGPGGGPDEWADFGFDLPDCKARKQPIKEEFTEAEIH

[10] = biological target: T2, wild-type TAp73α (retrovirally expressed in MCF-10A cells) (human, UniProt O15350 1-636); test: co-IP, MCF-10A cells, untreated
T2 construct: Ectopic wild-type TAp73α expressed via retrovirus in MCF-10A cells; It is tyrosine phosphorylated after cisplatin treatment; Construct limits and tags are not described; also called retroviral TAp73α
T2 sequence: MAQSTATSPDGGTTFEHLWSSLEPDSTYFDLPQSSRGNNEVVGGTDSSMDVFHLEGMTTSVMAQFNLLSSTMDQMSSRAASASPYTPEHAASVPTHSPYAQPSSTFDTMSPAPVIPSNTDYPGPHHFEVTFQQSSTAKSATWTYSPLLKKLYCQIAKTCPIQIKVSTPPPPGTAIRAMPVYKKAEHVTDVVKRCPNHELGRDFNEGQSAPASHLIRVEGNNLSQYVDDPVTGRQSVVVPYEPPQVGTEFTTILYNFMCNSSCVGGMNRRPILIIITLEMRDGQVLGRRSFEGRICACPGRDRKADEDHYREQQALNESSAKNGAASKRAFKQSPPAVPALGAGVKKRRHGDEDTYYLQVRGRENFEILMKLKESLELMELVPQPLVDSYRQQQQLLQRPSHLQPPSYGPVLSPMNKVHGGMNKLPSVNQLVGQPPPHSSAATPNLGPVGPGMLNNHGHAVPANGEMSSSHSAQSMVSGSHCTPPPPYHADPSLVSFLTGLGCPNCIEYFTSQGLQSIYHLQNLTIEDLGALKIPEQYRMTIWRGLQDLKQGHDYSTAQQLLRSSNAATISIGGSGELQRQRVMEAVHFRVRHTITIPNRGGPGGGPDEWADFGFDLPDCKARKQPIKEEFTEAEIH

[11] = MCF-10A cells, cisplatin treatment

Cc1ccc(NC(=O)c2ccc(CN3CCN(C)CC3)cc2)cc1Nc1nccc(-c2cccnc2)n1 [STI-571, Imatinib]
baseline NOXA expression ([1]; HCC-1937 and MDA-MB-468 cells): no effect
p73-dependent induction of NOXA following cisplatin treatment ([1]; pretreatment, HCC-1937 and MDA-MB-468 cells, 6 hours): blocked
cell proliferation ([2]; MDA-MB-468, at the dose used in these assays): did not affect
rescue from cell death induced by cisplatin ([2]; pretreatment, then cisplatin, MDA-MB-468): substantial rescue
cell proliferation ([3]; HCC-1937, at the dose used in these assays): did not affect
rescue from cell death induced by cisplatin ([3]; pretreatment, then cisplatin, HCC-1937): substantial rescue

COc1cccc2c1C(=O)c1c(O)c3c(c(O)c1C2=O)C[C@@](O)(C(=O)CO)C[C@@H]3O[C@H]1C[C@H](N)[C@H](O)[C@H](C)O1 [doxorubicin]
induction of other pro-apoptotic effectors ([1]; equally toxic concentration): no significant induction
increase in PUMA ([1]; equally toxic concentration as cisplatin): 2 fold
effect of ectopic TAp73β expression on sensitivity [4]: did not significantly enhance sensitivity

N.N.[Cl][Pt][Cl] [cisplatin, cis-diaminedichloroplatinuim (II)]
tyrosine phosphorylation of p73 ([5]; HCC-1937 and MB-468 cells, maximal at 6 hours): tyrosine phosphorylation of p73 was observed
phosphorylation of Y99F TAp73 [5, 11]: little detectable phosphorylation
phosphorylation of ectopic wild-type TAp73 [5, 11]: strongly phosphorylated
induction of PUMA and NOXA ([1]; HCC-1937 cells, following treatment): robustly induced
time to TAp73-dependent transcription of PUMA and NOXA ([1]; after cisplatin treatment): ≤ 2 h
dissociation of Y99F TAp73 from ΔNp63α ([6]; MCF-10A cells, 6 hours): essentially no dissociation
dissociation of ΔNp63α from wild-type TAp73 ([6]; MCF-10A cells, 6 hours): substantial dissociation
dissociation of the ΔNp63α/TAp73 complex ([6]; endogenous proteins, breast cancer cells, following treatment): substantial dissociation
Percent Sensitive [7]: 57% ( 4/7)
effect of Y99F TAp73 expression on sensitivity [4]: little, if any, effect
effect of wild-type TAp73 expression on sensitivity ([4]; P<0.01): significantly increased sensitivity
effect of ectopic TAp73β expression on sensitivity [4]: significantly increased the sensitivity
effect of TAp73 knockdown on the IC50 ([2]; TAp73-directed lentiviral shRNA vs vector control, MDA MB-468): more than 10 fold
IC70 dose ([3]; HCC-1937 cells): 6.6 µM
effect of TAp73 knockdown on the IC50 ([3]; TAp73-directed lentiviral shRNA vs vector control, HCC-1937): more than 10 fold
TAp73 as mediator of sensitivity [8]: not a mediator of sensitivity

CC(=O)O[C@H]1C(=O)[C@@]2(C)[C@H]([C@H](OC(=O)c3ccccc3)[C@]3(O)C[C@H](OC(=O)[C@H](O)[C@@H](NC(=O)c4ccccc4)c4ccccc4)C(C)=C1C3(C)C)[C@]1(OC(C)=O)CO[C@@H]1C[C@@H]2O [paclitaxel]
effect of ectopic TAp73β expression on sensitivity [4]: did not significantly enhance sensitivity

B1: ΔNp63α (other)
chain: MLYLENNAQTQFSEPQYTNLGLLNSMDQQIQNGSSSTSPYNTDHAQNSVTAPSPYAQPSSTFDALSPSPAIPSNTDYPGPHSFDVSFQQSSTAKSATWTYSTELKKLYCQIAKTCPIQIKVMTPPPQGAVIRAMPVYKKAEHVTEVVKRCPNHELSREFNEGQIAPPSHLIRVEGNSHAQYVEDPITGRQSVLVPYEPPQVGTEFTTVLYNFMCNSSCVGGMNRRPILIIVTLETRDGQVLGRRCFEARICACPGRDRKADEDSIRKQQVSDSTKNGDGTKRPFRQNTHGIQMTSIKKRRSPDDELLYLPVRGRETYEMLLKIKESLELMQYLPQHTIETYRQQQQQQHQHLLQKQTSIQSPSSYGNSSPPLNKMNSMNKLPSVSQLINPQQRNALTPTTIPDGMGANIPMMGTHMPMAGDMNGLSPTQALPPPLSMPSTSHCTPPPPYPTDCSIVSFLARLGCSSCLDYFTTQGLTTIYQIEHYSMDDLASLKIPEQFRHAIWKGILDHRQLHEFSSPSHLLRTPSSASTVSVGSSETRGERVIDAVRFTLRQTISFPPRDEWNDFNFDMDARRNKQQRIKEEGE
notes: The text mentions hetero-tetramers with TAp73, but the stoichiometry was not measured; also called DNp63a; DNp63α
binding result [9]: binds
binding result [10]: binds
